In publication PMC8026246 (Bioorganic Chemistry, 2021):

Target: SARS-CoV-2 M^pro (Severe acute respiratory syndrome coronavirus 2, UniProt P0DTD1)
Format: binding
Conditions: pH 6.8

In the case of `CCN(CC)c1ccc2c(-c3ccccc3C(=O)O)c3ccc(=[N+](CC)CC)cc-3oc2c1` [rhodamine B], the “Fluorescent labeling of M^pro (gel, UV 365 nm)” value is reported as “could not label M^pro”.
